Entries after “also recorded” stand apart in the source; their conditions may differ. Each block holds one molecule with its values, some of them ahead of it.
Tests used:
[1] = system: blood clotting (citrated sheep blood); experiment: Net activated clotting time (net ACT) in citrated sheep blood (Examples 3-5); parameters: key: seconds; measured ACT minus blood control ACT (165 s); conditions: single drug, blood control 165 seconds
Experimental: The activated clotting time (ACT) evaluation of anticoagulants was performed in calcium citrate sheep blood and recorded employing the Hemochron® Response device. The ACT measurements were made in citrated sheep blood. 1.9 ml of citrated sheep blood was added to a test tube containing an activator (Hemochron@Celite@ ACT tubes, Lot F8FTE026 from Accriva Diagnostics, Inc.). A target amount of drug solution was then added into the test tube. The test tube was gently swirled so that the blood and drug were well-mixed. 0.1 ml of 0.3M calcium chloride was then added. The tube was gently shaken before being inserted into the Hemochron Response detector. The ACT read out was recorded and reported. The ACT of the control blood in the absence of any drug as first determined to establish a baseline. Here the blood control measured is 165 seconds. Then ACT was determined in the presence of different concentrations of the drug as a single component. In the following study, the net ACT (measured ACT minus blood control ACT) was utilized to visualize the synergistic effect of direct factor Xa inhibitor (Rivaroxaban) and direct factor IIa inhibitor (Argatroban) drug combinations. The figures are presented in ng/mg wherein the density of blood and tissue are approximately the same.
Example 4 is the continuation of example 3, which employed the same method as in example 3. The only difference is that the direct factor Xa inhibitor Edoxaban is used in place of direct factor Xa inhibitor Rivaroxaban.
Example 5 is the continuation of example 3, which employed the same method as in example 3. The only difference is that the direct factor Xa inhibitor Betrixaban is used in place of direct factor Xa inhibitor Rivaroxaban.

[2] = system: blood clotting (heparinized sheep blood); experiment: Net ACT initiated by platelet activation factor (PAF) and CaCl2 in heparinized sheep blood (Examples 6-11); conditions: single drug, 0.05 ng/mg; PAF & CaCl2; blood control 235 seconds
Experimental: In order to examine the potential synergistic effects between anti-inflammatory agents, direct factor Xa inhibitors, direct factor IIa inhibitors, antiplatelets (P2Y12 inhibitor and glycoprotein IIb/IIIa inhibitor, platelet activation factor and CaCl2 were utilized by measuring ACT. Heparinized sheep blood was used to preserve platelet function.
The activated clotting time (ACT) evaluation initiated by platelet activation factor (PAF) and calcium chloride (CaCl2) was performed in heparinized sheep blood and recorded employing the Hemochron® Response device. […] A target amount of drug solution was then added into the test tube. The test tube was gently swirled so that the blood and drug were well-mixed. […] The tube was gently shaken before being inserted into the Hemochron Response detector. The ACT read out was recorded and reported. The ACT of the control heparinized sheep blood in the absence of any drug as first measured to establish a baseline. […] Then ACT was measured in the presence of different concentrations of the drug measured. Selected drug combinations were then tested to evaluate for potential synergy in action between the drug combination. The net ACT (ACT minus blood control ACT) was utilized to visualize the synergistic effect. […] The figures are presented in ng/mg wherein the density of blood and tissue are approximately the same.

[3] = In vivo drug release from / drug remaining on implanted stents (HPLC); parameters: species or system porcine; conditions: 7 days, n = 5
Experimental: The percentage and/or amount of each anticoagulant drug for or by each time point indicated were analyzed for each stent from the different devices in the example and the average drug tissue concentration reported.
Tissue concentrations and the amount of drug released from the stents were measured using stents implanted in porcine arteries for the drugs as indicated. The arteries at the designated time point were excised and a length of stented artery spanning from 5 mm proximal to the stented segment to 5 mm distal to the stented segment was cut. The stented artery was cut longitudinally with surgical scissors. The stents were separated from the tissue. The tissue content of each drug was analyzed using liquid chromatography mass spectroscopy (LCMS) and reported as a mean for each of the timepoint indicated. For drug remaining on each stent, each drug was extracted from the stent, measured using HPLC, and reported as a mean for each of the timepoint indicated as drug released or drug remaining on a stent (where drug remaining is equal to 100% minus the percentage of drug released).

porcine coronary artery = experiment: In vivo porcine coronary stent implantation: fibrin score and late lumen loss (Examples 25-26); conditions: for inhibition of fibrin formation compared to control: Table 10, 7 days and 28 days
Experimental: The drug eluting stent systems containing different anticoagulants prepared as described in Example 11 were evaluated at 3 hours, 6 hours, 1 day, 3 days, 6 days, 7 days, or 28 days following implantation in a porcine coronary artery model.
The porcine model was chosen as this model has been used extensively for stent and angioplasty studies resulting in a large volume of data on the vascular response properties and its correlation to human vascular response (Schwartz et al, Circulation. 2002; 106:1867 1873). The animals were housed and cared for in accordance with the Guide for the Care and Use of Laboratory Animals as established by the National Research Council.
After induction of anesthesia, the left or right femoral artery was accessed using standard techniques and an arterial sheath was introduced and advanced into the artery. Vessel angiography was performed under fluoroscopic guidance, a 7 Fr. guide catheter was inserted through the sheath and advanced to the appropriate location where intracoronary nitroglycerin was administered. An appropriate implantation segment of coronary artery was randomly selected and a 0.014″ guidewire inserted. Quantitative Coronary Angiography (QCA) was performed to document the results. The appropriately size stent was advanced to the deployment site. The balloon was inflated at a steady rate to a pressure sufficient to achieve a balloon to artery ratio of approximately 1.1 to 1.0.
Follow up angiography was performed at the designated timepoint for each of the animals. Late lumen loss (LLL) can be expressed as: […]
The LLL is an indicator of the amount smooth muscle cell (SMC) proliferation or inhibition. It is used to measure efficacy between drugs for SMC proliferation inhibition. The smaller the LLL, the better the efficacy of the drug.
Stented portions of coronary arteries were embedded in methyl methacrylate (MMA), then divided into a target of at least three blocks of approximately similar lengths for histology evaluation. Quantitative histopathological evaluation of stented artery sections was then performed and scored as indicated. For Fibrin formation, scores ranged from 0 to 3, with a score of 0 indicating absent or rare minimal spotting around struts of the stent, a score of 1 indicating the presence of fibrin in small amounts localized only around the struts, a score of 2 indicating the moderately abundant or denser presence of fibrin around and extending beyond the struts, and a score of 3 indicating the presence of abundant and dense fibrin and/or bridging of the fibrin between the struts. The mean score was calculated and reported. The mean of each section was then averaged to provide a mean fibrin score per stent. The smaller the fibrin score, the better efficacy.

[4] = system: platelets (Tissue factor generated antiplatelet); conditions: cited from earlier work
[5] = system: blood clotting (citrated sheep blood); experiment: Activated clotting time (ACT) in citrated sheep blood (Example 2); conditions: single drug, 0.6 ng/mg
Experimental: The activated clotting time (ACT) evaluation of anticoagulants was performed in calcium citrate sheep blood and recorded employing the Hemochron® Response device.
The ACT measurements were made in citrated sheep blood. 1.9 ml of citrated sheep blood was added to a test tube containing an activator (Hemochron@Celite@ ACT tubes, Lot F8FTE026 from Accriva Diagnostics, Inc.). A target amount of drug solution was then added into the test tube. The test tube was gently swirled so that the blood and drug was well-mixed. 0.1 ml of 0.3M calcium chloride was then added. The tube was gently shaken before being inserted into the Hemochron Response detector. The ACT read out was recorded and reported. The ACT of the control blood in the absence of any drug as first determined to establish a baseline. Then ACT was determined in the presence of different concentrations of the drug as a single component. Selected drug combinations were then tested to evaluate for potential synergy in action between the two drugs.

Cumulative Percent Release of drug: Rivaroxaban [3]: at least 88.9% | Cumulative Percent Release of drug: Rivaroxaban ([3]; listed as Rivamomaban): at least 99.7%
Compound: O=C(NC[C@H]1CN(c2ccc(N3CCOCC3=O)cc2)C(=O)O1)c1ccc(Cl)s1 [Rivaroxaban]
net ACT ([1]; 0.15 ng/mg): 114 | net ACT ([1]; 0.3 ng/mg): 139 | net ACT [2]: 166 s | inhibition of fibrin formation compared to bare metal control stents (porcine coronary artery; Table 9, day 7): effective at inhibiting fibrin formation | inhibition of fibrin formation compared to control (porcine coronary artery): effective at inhibiting fibrin formation compared to control at 7 days and at 28 days when it was released at a faster rate and/or at a larger dose; also recorded: not effective at inhibiting fibrin formation compared to control at 28 days when it was released at a slower rate and/or at a smaller dose; also recorded: more effective at inhibiting fibrin formation compared to control at 7 days and at 28 days; also recorded: not effective at inhibiting fibrin formation compared to control at 28 days | inhibition of fibrin formation compared to control (porcine coronary artery; listed as Rivamomaban): more effective at inhibiting fibrin formation compared to control at 7 days and at 28 days | IC50 [4]: 312 nM | IC50 for Tissue factor generated antiplatelet [4]: 0.136 ng/mg

Compound: COc1ccc(-n2nc(C(N)=O)c3c2C(=O)N(c2ccc(N4CCCCC4=O)cc2)CC3)cc1 [Apixaban]
ACT [5]: 522
